Laboratory results reported in patent US9388224B2, “Compositions for preserving insulin-producing cells and insulin production and treating diabetes” (VANDERBILT UNIVERSITY, priority 2011, dated 2016).
Bridge positions count the residues as written; N and C are the ends. Ends that are not written are not given here. Peptide text beside a SMILES is read from it.

How the values were obtained:
[1] = tested on: autoimmune diabetes in NOD mice; test: Autoimmune diabetes progression in cyclophosphamide-synchronized NOD mice (blood glucose); assay type: in vivo; conditions: general statement, experiments described herein
From the text: NOD/LtJ, NOD-BDC2.5 and C57BL/6 mice were purchased from the Jackson Laboratories (Bar Harbor, Me.) at 6-8 weeks of age. All mice were housed and maintained according to the guidelines for use and care of laboratory animals as set forth by Vanderbilt University and regulated via the Vanderbilt IACUC. All NOD mice were monitored twice weekly for the development of diabetes by blood glucose measurement with FreeStyle® FastTake test strips (Abbott Laboratories, Abbott Park, Ill.). Two consecutive glucose measurements >220 mg/dl constituted a diagnosis of diabetes. A colony of NOD mice kept by a collaborating laboratory in the same animal suite has a spontaneous diabetes incidence of 80-90% in females by 30 weeks of age indicating an animal environment that is conducive for diabetes development.
At 10-11 weeks of age, female NOD mice received an intraperitoneal bolus injection of 200 mg/kg cyclophosphamide (Sigma). Cyclophosphamide was prepared by reconstitution of powder in sterile saline for injection.
45 h after diabetes synchronization with cyclophosphamide, treatment with cSN50 or control was initiated. Mice receiving cSN50 were given 35 μg/g of cSN50 i.p. every two hours for the next 48 h. Control mice received either saline or non-cell penetrating cN50 peptide at molar equivalent (20 μg/g). cN50 peptide, contains the cyclized NLS but lacks the membrane translocating motif. […]

[2] = Anti-cSN50 peptide antibody induction (ELISA); assay type: in vivo, NOD mice; conditions: limit of detection 10 ng/mL
[3] = Continued peptide delivery in other disease models, toxicity; assay type: in vivo; conditions: up to 8 weeks, health, survival, weight gain, liver enzymes, blood cell counts normal
From the text: Reduction or complete elimination of islet-destructive autoreactive T and B cells may be useful in treating T1D and potentially other autoimmune diseases. Other autoimmune disorders include Systemic Lupus Erythematosus, Multiple Sclerosis, Rheumatoid Arthritis, Crohn Diseases, and Ulcerative Collitis. Under conditions of metabolic, inflammatory, and oxidant stress, beta cell mass may be further controlled by important interactions between bone marrow-derived cells and islet beta cells. Transcriptional modulation of these interactions via targeting of the nuclear import machinery represents an important new opportunity for therapeutic development. Even though cSN50 can modulate nuclear transport of several stress-responsive transcription factors that utilize importin alpha 1/karyopherin alpha 5 (as well as other importins/karyopherins, e.g., importin alpha 5/karyopherin) for nuclear trafficking, intracellular delivery of the Nuclear Transport Modifier is rapid and restricted to the relatively short intracellular persistence of the injected cargo (Hawiger J., (1999) Current Opinion in Chem. Biology 3:89-94). Despite high intensity dosing of cSN50 in the protocols disclosed herein, short-term or long-term adverse effects were not observed. […] In preliminary studies, spontaneous disease was reversed in 40% of the NOD mice during a continuing NTM treatment for 3 weeks.

NOD mice = test: Toxicity observation and clinical chemistry in treated NOD mice
Procedure: ALT and BUN levels were determined on a VITROS 250 Chemistry analyzer using multi-layered vitros slides and colorimetric or enzyme rate tests as appropriate.
Ten week old female NOD mice received one dose of Cy (0.2 mg/g); after 45 h, intracellular peptide delivery was initiated with cSN50 (35 μg/g) or with control cN50 and continued every 2 h for 48 h. Serum was obtained daily from the saphenous vein and measurements of ALT (FIG. 8A) and BUN (FIG. 8B) were performed in 7 mice in each group.

[4] = In vivo intracellular peptide delivery to the pancreas (confocal microscopy); design: species or system NOD mice; conditions: single i.p. injection (0.7 mg FITC-labeled peptide/mouse or FITC of equivalent fluorescence); 2 h after injection
From the text: Cell-penetrating peptide (cSN50, MW=3149; cSN50.1, MW=2986), and non-cell-penetrating peptide (cN50, MW=1651), were synthesized, purified, filter-sterilized, and analyzed as described elsewhere (Torgerson et al. (1998) J Immunol 161: 6084-6092; Liu et al. (2000) J Biol Chem 275: 16774-16778). To monitor the intracellular delivery of peptides to pancreas, cSN50 peptide was coupled with fluorescein isothiocyanate (FITC, Pierce) according to the manufacturer's protocol.
For in vivo detection of fluorescein-labeled peptides in the pancreas, NOD mice were sacrificed at 2 h after intraperitoneal (i.p.) injection of 0.7 mg of FITC-labeled cSN50 peptide/mouse. The pancreata were washed with saline and prepared for cryosections (10 μm thickness). Control solution of FITC alone with equivalent fluorescence units was injected separately to track distribution to the pancreas.
Intracellular delivery of a Nuclear Transport Modifier to the pancreas reduces islet inflammation (insulitis). […] It was first determined whether cSN50 would be delivered to the pancreas, the primary site of autoimmune attack against beta cells in pancreatic islets. […] Using confocal microscopy, the pancreatic delivery of FITC-labeled cSN50 peptide following a single intraperitoneal (i.p.) injection was assessed. […]

AAVALLPAVLLALLAPCVQRKRQKLMPC (disulfide 17-28 (inferred)) [cSN50.1, cSN50 with the tyrosine at position 18 removed to increase solubility]
islet protection from immune destruction [1]: effectively protected islets from immune destruction

CSCC[C@@H]1NC(=O)[C@H](CC(C)C)NC(=O)[C@H](CCCCN)NC(=O)[C@H](CCC(N)=O)NC(=O)[C@H](CCCNC(=N)N)NC(=O)[C@H](CCCCN)NC(=O)[C@H](CCCNC(=N)N)NC(=O)[C@H](CCC(N)=O)NC(=O)[C@H](C(C)C)NC(=O)[C@H](Cc2ccc(O)cc2)NC(=O)[C@@H](NC(=O)[C@@H]2CCCN2C(=O)[C@H](C)NC(=O)[C@H](CC(C)C)NC(=O)[C@H](CC(C)C)NC(=O)[C@H](C)NC(=O)[C@H](CC(C)C)NC(=O)[C@H](CC(C)C)NC(=O)[C@@H](NC(=O)[C@H](C)NC(=O)[C@@H]2CCCN2C(=O)[C@H](CC(C)C)NC(=O)[C@H](CC(C)C)NC(=O)[C@H](C)NC(=O)[C@@H](NC(=O)[C@H](C)NC(=O)[C@H](C)N)C(C)C)C(C)C)CSSC[C@@H](C(=O)O)NC(=O)[C@@H]2CCCN2C1=O [cSN50] (H-AAVALLPAVLLALLAPCYVQRKRQKLMPC-OH; disulfide 17-29; N-terminus and C-terminus assumed)
anti-cSN50 peptide antibody induction [2]: not detected | toxicity on continued delivery [3]: without evidence of toxicity | overt signs of toxicity (NOD mice; 365 days of observation after 48 h treatment): did not display overt signs of toxicity | acquired infection (NOD mice; after intensive treatment): no signs of acquired infection | weight gain (NOD mice; after intensive treatment): normal weight gain | BUN level (NOD mice; serum daily, 7 mice per group, vs cN50 control): not significantly different from control | ALT level (NOD mice; serum daily, 7 mice per group, vs control): not significantly different from control | alkaline phosphatase, creatinine, creatine kinase, and total bilirubin (NOD mice; serum, 7 mice per group): below the limit of detection

fluorescein isothiocyanate [FITC]
delivery to / distribution in the pancreas [4]: did not penetrate the organ
